Results: patent US4162311A, “Medicinal preparation with pronounced vegetotropic and antiepileptic effect for treating psychoneurotic disorders” (priority 1977, dated 1979)
“Also recorded” adds a separate entry of the source. Where two headings read alike, the source gives them in different places.

Tests used:
[1] = cited from earlier work; for effect of other treatments: aforesaid diseases; for vegetotropic and antiepileptic effect: among tranquilizers; for relaxing effect and sluggishness: taken over prolonged periods of time
[2] = system: convulsant effects of corasole and caffeine; conditions: mice; comparison drug; cited from earlier work
[3] = system: lethal dose of cocaine; experiment: lethal dose of cocaine in mice
[4] = local irritant effect; conditions: in vivo
[5] = system: orientating reaction in mice; experiment: orientating reaction in mice; assay type: in vivo; conditions: intra-abdominal, 1/8 DMT, one hour before
[6] = system: nicotine-induced convulsions; experiment: nicotine-induced convulsions in mice; assay type: in vivo
[7] = clinical: hypothalamic syndrome with sympathoadrenal crises; assay type: in vivo, patients; conditions: of 20 cases
Excerpt: In 12 cases the number and intensity of fits were reduced and general improvement was observed. Earlier, all the patients had been repeatedly admitted to neurological hospitals where they were subjected to different forms of treatment, including drug therapy with the use of tranquilizers of the benzodiazepin derivatives. The effect of such treatment was quite moderate and unstable and was only manifest in a reduced number of fits and a slight improvement of the general state of the patients.

[8] = system: hexenal, barbamil, urethane and chloral hydrate effect; experiment: interaction with narcotics and soporifics (hexenal, barbamil, urethane, chloral hydrate); assay type: in vivo
Excerpt: (§1) A dose as low as 1/5 DMT potentiates barbamil.

[9] = body temperature of mice; assay type: in vivo; conditions: for decrease of body temperature (hypothermal effect): 200 mg/kg (DMT)
[10] = system: epileptic seizures caused by microinjections of penicillin; experiment: epileptic seizures caused by microinjections of penicillin into the hippocamp; assay type: in vivo; conditions: rabbits, 20 to 100 mg/kg
Excerpt: (§2) As regards the effects of the proposed preparation on convulsions induced in animals in the course of an experiment, the mechanism of action appears to be more complicated.

[11] = system: cholinesterase; experiment: anticholinesterase properties
[12] = clinical: neurasthenia with vegetovascular dystonia; assay type: in vivo, patients
[13] = solubility; assay type: physicochemical
Excerpt: Hydrazide of diphenylphosphinylacetic acid is a bitter-tasting odorless white crystalline powder. It is soluble in water (1:100), alcohol and chloroform, but insoluble in benzene and ether.

[14] = acute toxicity / tolerance dose; conditions: in vivo
[15] = clinical: acute alcoholic abstinence; assay type: in vivo, patients; conditions: of 30 alcoholics; first two days; placebo 10 of 30
Excerpt: On the whole, the proposed preparation reduced the period of abstinence 2- to 3-fold.

[16] = clinical investigation in neurotic and psychic disorders
[17] = system: separated intestines; blood pressure and respiration of rabbits; experiment: peripheral adrenolytic effect: separated intestines, blood pressure and respiration of rabbits
[18] = system: monoaminooxidaze; experiment: monoaminooxidaze suppression, inferred from hexenal sleep; assay type: in vivo; conditions: concluded from equal hexenal sleep at 2 and 22 hours
Excerpt: as §1

[19] = prolonged treatment, anatomical and histological examination, mice; assay type: in vivo; conditions: intraperitoneal, 35 mg/kg (1/9 LD50)
[20] = system: serotonin content in brain tissue; experiment: serotonin content in brain tissue of mice; assay type: in vivo
[21] = system: sympathoadrenal and hypothalamohypophysioadrenal systems; experiment: clinical studies of vegetovascular dystonia; assay type: in vivo, patients; conditions: 32 cases
[22] = behavior of rabbits after intramuscular administration; assay type: in vivo; conditions: 50 mg/kg
[23] = system: arecoline tremor; experiment: M-cholinolytic effect: arecoline tremor in mice; assay type: in vivo
[24] = sedative effect / depression in animals; assay type: in vivo, mice and rats
[25] = prolonged treatment, anatomical and histological examination, rabbits; assay type: in vivo; conditions: intramuscular, 50 mg/kg
[26] = system: convulsant effects of corasole and caffeine; experiment: sensitivity of mice to the convulsant effects of corasole and caffeine; assay type: in vivo
[27] = system: action of serotonin on a separated rat's intestine; experiment: separated intestine with serotonin
[28] = system: apomorphine toxicity and stereotypy; experiment: apomorphine toxicity and stereotypy; assay type: in vivo, mice
[29] = system: hypothermal effect of aminazine (chlorpromazine); experiment: hypothermal effect of aminazine (chlorpromazine); conditions: in vivo
[30] = cumulative effect; conditions: in vivo
[31] = system: convulsions caused by corasole, strychnine, and electroconvulsion therapy; experiment: convulsions caused by corasole, strychnine and electroconvulsion therapy; assay type: in vivo, animals
Excerpt: as §2

[32] = analgetic effect in mice
[33] = system: phenamine stereotypy; experiment: phenamine stereotypy in rats
[34] = clinical safety on prolonged use; assay type: in vivo, patients
Excerpt: The proposed preparation can be used for treating both young and old patients, as well as those having concomitant diseases of internal organs.

[35] = system: effects of nibuphin; experiment: synergism with nibuphin; conditions: in vivo
[36] = chemical stability / shelf life; assay type: physicochemical
Excerpt: Hydrazide of diphenylphosphenylacetic acid is a bitter-tasting odorless white powder.

[37] = clinical: temporal lobe epilepsy; assay type: in vivo, patients
Excerpt: Good results were also obtained in treating 18 cases of temporal lobe epilepsy with predominant psychosensory, psychomotor, vegetative and emotional fits. For a number of years, all the patients had been given anticonvulsants and tranquilizers which were derivatives of benzodiazepin. In most of these cases conventional treatment had been ineffective. The proposed preparation brought about a dramatic change: in 14 cases the attacks either ceased completely or their frequency was reduced by more than half.

## [Mg+2].[O-2] [magnesia]
[1]
  effect of other treatments: only a limited and short-lived effect

## CN1C(=O)CN=C(c2ccccc2)c2cc(Cl)ccc21 [diazepam]
[1]
  vegetotropic and antiepileptic effect: most pronounced vegetotropic and antiepileptic effect
  relaxing effect and sluggishness: manifest a relaxing effect and produce sluggishness

## CNC1=Nc2ccc(Cl)cc2C(c2ccccc2)=[N+]([O-])C1 [chlorodiazepoxide]
[1]
  vegetotropic and antiepileptic effect: most pronounced vegetotropic and antiepileptic effect
  relaxing effect and sluggishness: manifest a relaxing effect and produce sluggishness

## COC(=O)[C@H]1[C@H]2C[C@@H]3c4[nH]c5cc(OC)ccc5c4CCN3C[C@H]2C[C@@H](OC(=O)c2cc(OC)c(OC)c(OC)c2)[C@@H]1OC [reserpine]
[2]
  sensitivity to convulsant effects of corasole and caffeine: increases the sensitivity of mice

## CCN(CC)CCOC(=O)c1ccc(N)cc1 [novocain]
[1]
  effect of other treatments: only a limited and short-lived effect

## NNC(=O)CP(=O)(c1ccccc1)c1ccccc1 [Hydrazide of diphenylphosphinylacetic acid]
[3]
  prevention of death of mice: 60%
[4]
  local irritant effect: no local irritant effect
[5]
  effect on orientating reaction: affects the orientating reaction in mice
[6]
  nicotine-induced convulsions: relieve nicotine-induced convulsions in mice
[6]; nicotine-induced convulsions
  increase of survival rate: 50%
[7]
  cases with marked improvement (crises ceased, working capacity restored): 5 cases
  cases with number and intensity of fits reduced and general improvement: 12 cases
[8]; barbamil
  lowest dose potentiating barbamil: 1/5
[8]; hexenal given 2 and 22 hours after the preparation
  duration of hexenal sleep: induces sleep of equal duration
[8]; in vivo
  potentiation of narcotics and soporifics: potentiates hexenal, barbamil, urethane and chloral hydrate; also recorded: exhibits the properties of a true Brodie potentiator
[9]; 30 mg/kg (1/7 DMT)
  effect on body temperature: no effect
[9]; 60 mg/kg (printed 166 DMT)
  effect on body temperature: no effect
[9]; 1.5 hours
  decrease of body temperature (hypothermal effect): 4.3 °C
[9]; 3 hours
  decrease of body temperature (hypothermal effect): 3.4 °C
[10]
  epileptic seizures: prevents or reduces the frequency of epileptic seizures
[11]
  anticholinesterase properties: do not possess anticholinesterase properties
[12]; 8 of 11 patients
  vegetovascular crises: reduced number or even complete eliminationn of vegetovascular crises
[12]; of 11 patients, end of the first week
  patients with significant improvement: 8 patients
[13]; alcohol
  solubility in alcohol: soluble
[13]; benzene
  solubility in benzene: insoluble
[13]; chloroform
  solubility in chloroform: soluble
[13]; ether
  solubility in ether: insoluble
[14]
  toxicity: limited toxicity
[14]; iv, injected intravenously, species not given
  LD50: 293 mg/kg
[14]; mouse, mice, read-out: DMT (tolerance dose)
  MTD: 200 mg/kg
[15]
  patients with considerable improvement: 20
[16]; human, in vivo
  tranquilizer strength: relatively weak tranquilizer
[16]; neuroses
  night sleep effect: light night sleep compeller
  onset of sleep: accelerates the onset of sleep
[16]; neurotic and psychic disorders with vegetovascular disturbances and epileptic fits without convulsions
  efficacy versus known drugs: superior in this respect to the known drugs
[16]; patients
  side effects or complications: no side effects or complications
  tolerance: good tolerance
[16]; patients, versus benzodiazepin derivatives
  relaxation effect: absence to a marked relaxation effect
[17]
  peripheral adrenolytic effect: no peripheral adrenolytic effect
[18]
  suppression of monoaminooxidaze activity: does not suppress the monoaminooxidaze activity
[19]
  changes in blood and internal organs: no changes in the blood and internal organs
[20]
  serotonin content in brain tissue: decreases the serotonin content
[21]
  excretion of adrenalin and 17-oxycorticosteroids with urine: pronounced normalization
  extraction of norepinephrine: tendenecy towards a normalized extraction
[21]; course of treatment
  functions of sympathoadrenal and hypothalamohypophysioadrenal systems: normalized the functions
[22]
  effect on animals' behavior: in no way affected the animals's behavior
[23]; mice
  effect on arecoline tremor: does not mitigate arecoline tremor in mice
  effect on duration of arecoline tremor: nor does it affect its duration
[23]; mouse, in vivo
  M-cholinolytic effect: no M-cholinolytic effect
[24]; animals
  sedative effect: pronounced sedative effect
[24]; mice and rats
  lowest dose causing depression: 1/3
[24]; mice and rats, tolerance doses, beginning with 1/3 DMT
  depression (without "on-side" position): causes depression in mice and rats
[25]
  changes in blood and internal organs: no changes in the blood and internal organs
[26]
  sensitivity to convulsant effects of corasole and caffeine: increases the sensitivity of mice
[27]
  antagonism of serotonin on separated intestine: prevents the action of serotonin
[28]; mice
  effect on toxicity of apomorphine: does not intensify the toxicity of apomorphine in mice
[28]; mouse, in vivo
  effect on duration of apomorphine stereotypy: nor does it affect the duration of apomorphine stereotypy
[29]
  effect on hypothermal effect of aminazine (chlorpromazine): intensifies the hypothermal effect
[30]
  cumulative effect: no cumulative effect
[31]
  prevention of convulsions: does not prevent convulsions
[32]; 1/2 DMT
  effect on analgetic effect of analginum: intensified the analgetic effect of analginum
[32]; 1/4 DMT
  effect on analgetic effect of morphine: intensified the analgetic effect of morphine
[32]; mice
  lowest dose with analgetic effect: 1/4
[32]; mice, 1/2 DMT
  duration of analgetic effect: three hours
[32]; mice, DMT
  duration of analgesia: more than five hours
[33]; great doses
  advent of phenamine stereotypy: prevents the advent
[33]; rats, 10 mg/kg to 400 mg/kg
  duration of phenamine stereotypy: statistically reliable reduction
[34]; 8 to 12 weeks
  electrocardiography: nor are there any changes that could be detected by electrocardiography
  morphological and biochemical composition of the blood: does not change the morphological and biochemical composition of the blood
[34]; clinical
  habit formation: not habit-forming
  toxicity: low toxicity
[34]; human, in vivo
  contraindication: gastric ulcer with a tendency to frequency exacerbations
  impediment to drivers: no impediment to drivers
[34]; prolonged administration
  side effects or complications: no side effects or complications
[35]
  synergism with nibuphin: synergism
[36]
  shelf life: longer than two years
[36]; powder and solution
  chemical stability: chemically stable both in the form of powder and solution
[37]; 18 cases
  dysphorias and patients' behavior: dysphorias were better endured, and the patients' behavior became more controlled
  electroencephalography: reduction in the paroxysmal activity and normalization of recordings
[37]; of 18 cases
  cases in which attacks ceased completely or frequency reduced by more than half: 14 cases
